Experimental data from ChEMBL document CHEMBL1697781, “Assessment of the health effects of chemicals in humans: II. Construction of an adverse effects database for QSAR modeling” (Curr Drug Discov Technol, 2004).

Tests used:
Conditions in all cases: human; call rule not given here
Hepatotoxicity [1] = assay: FDA HLAED, gamma-glutamyl transferase (GGT) increase
Hepatotoxicity [2] = assay: FDA HLAED, serum glutamic oxaloacetic transaminase (SGOT) increase
Hepatotoxicity [3] = assay: FDA HLAED, alkaline phosphatase increase
Hepatotoxicity [4] = assay: FDA HLAED, lactate dehydrogenase (LDH) increase
Hepatotoxicity [5] = assay: FDA HLAED, liver enzyme composite activity
Hepatotoxicity [6] = assay: FDA HLAED, serum glutamic pyruvic transaminase (SGPT) increase
Wherever GGT Increase - Index Value is given: reference of the scale not given here.
Wherever LDH Increase - Index Value is given: reference of the scale not given here.

Structure (SMILES)	GGT Increase - Activity Score (Hepatotoxicity [1])	GGT Increase - Index Value (Hepatotoxicity [1])	GGT Increase - Number of Reports (Hepatotoxicity [1])	SGOT Increase - Activity Score (Hepatotoxicity [2])	SGOT Increase - Index Value (Hepatotoxicity [2])	SGOT Increase - Number of Reports (Hepatotoxicity [2])	Alkaline Phosphatase Increase - Activity Score (Hepatotoxicity [3])	Alkaline Phosphatase Increase - Index Value (Hepatotoxicity [3])	Alkaline Phosphatase Increase - Number of Reports (Hepatotoxicity [3])	LDH Increase - Activity Score (Hepatotoxicity [4])	LDH Increase - Index Value (Hepatotoxicity [4])	LDH Increase - Number of Reports (Hepatotoxicity [4])	Composite Activity - Active (Hepatotoxicity [5])	Composite Activity - Marginal (Hepatotoxicity [5])	Composite Activity - Score (Hepatotoxicity [5])	SGPT Increase - Activity Score (Hepatotoxicity [6])	SGPT Increase - Index Value (Hepatotoxicity [6])	SGPT Increase - Number of Reports (Hepatotoxicity [6])	Composite Activity - Active (Hepatotoxicity [5]; Liver)	Composite Activity - Marginal (Hepatotoxicity [5]; Liver)	other results
COC(=O)C1=C(C)NC(C)=C(C(=O)OCCN(C)Cc2ccccc2)C1c1cccc([N+](=O)[O-])c1 (stereo unspecified) [NICARDIPINE]	Inactive	0.4	< 4	Marginally Active	3	>= 4	Inactive	2	>= 4	Inactive	0.9	>= 4	0	1	Inactive	Inactive	2.5	>= 4	–	–	–
CN1CCC[C@H]1c1cccnc1 [NICOTINE]	Inactive	0.3	< 4	Inactive	0.6	< 4	Inactive	0	< 4	Inactive	0.9	< 4	–	–	–	Inactive	0.6	< 4	0	0	Composite Activity - Score (Hepatotoxicity [5]; Liver): Inactive
COC(=O)C1=C(C)NC(C)=C(C(=O)OC)C1c1ccccc1[N+](=O)[O-] [NIFEDIPINE]	Inactive	0	< 4	Inactive	0.6	>= 4	Inactive	0.3	< 4	Inactive	0.1	< 4	0	0	Inactive	Inactive	0.4	>= 4	–	–	–
CC1(C)NC(=O)N(c2ccc([N+](=O)[O-])c(C(F)(F)F)c2)C1=O [NILUTAMIDE]	Inactive	0	< 4	Inactive	19.5	< 4	Inactive	0	< 4	Inactive	0	< 4	–	–	–	Inactive	19.5	< 4	0	0	Composite Activity - Score (Hepatotoxicity [5]; Liver): Inactive
COCCOC(=O)C1=C(C)NC(C)=C(C(=O)OC(C)C)C1c1cccc([N+](=O)[O-])c1 (stereo unspecified) [NIMODIPINE]	Active	17.6	< 4	Active	23.4	>= 4	Active	17.6	< 4	Active	23.4	>= 4	5	0	Active	Active	29.3	>= 4	–	–	–
COC(=O)C1=C(C)NC(C)=C(C(=O)OCC(C)C)C1c1ccccc1[N+](=O)[O-] (stereo unspecified) [NISOLDIPINE]	Inactive	0	< 4	Inactive	3.2	< 4	Inactive	0	< 4	Inactive	0	< 4	0	0	Inactive	Inactive	1.6	< 4	–	–	–
O=C1CN(/N=C/c2ccc([N+](=O)[O-])o2)C(=O)N1 [NITROFURANTOIN]	Active	16.4	>= 4	Active	52	>= 4	Active	32.8	>= 4	Active	35.6	>= 4	–	–	–	Active	27.4	>= 4	5	0	Composite Activity - Score (Hepatotoxicity [5]; Liver): Active
CNC(=C[N+](=O)[O-])NCCSCc1csc(CN(C)C)n1 [NIZATIDINE]	Inactive	0.8	>= 4	Marginally Active	3	>= 4	Inactive	1.4	>= 4	Inactive	0.5	>= 4	0	1	Inactive	Inactive	2.4	>= 4	–	–	–
CC(Cc1ccc(O)c(O)c1)C(C)Cc1ccc(O)c(O)c1 (stereo unspecified) [NORDIHYDROGUAIARETIC ACID]	Inactive	0	< 4	Inactive	0	< 4	Inactive	0	< 4	Inactive	0	< 4	0	0	Inactive	Inactive	0	< 4	–	–	–
CCn1cc(C(=O)O)c(=O)c2cc(F)c(N3CCNCC3)cc21 [NORFLOXACIN]	Inactive	0	< 4	Active	5.6	>= 4	Active	6.3	>= 4	Marginally Active	3.7	>= 4	–	–	–	Marginally Active	3	>= 4	2	2	Composite Activity - Score (Hepatotoxicity [5]; Liver): Active
CC1COc2c(N3CCN(C)CC3)c(F)cc3c(=O)c(C(=O)O)cn1c23 (stereo unspecified) [OFLOXACIN]	Inactive	0.5	< 4	Inactive	1.9	>= 4	Inactive	1.2	>= 4	Inactive	1.2	>= 4	0	0	Inactive	Inactive	2.1	>= 4	–	–	–
Cc1cc2c(s1)Nc1ccccc1N=C2N1CCN(C)CC1 [OLANZAPINE]	Active	9.1	>= 4	Active	16.5	>= 4	Marginally Active	3.7	>= 4	Inactive	2.1	>= 4	3	1	Active	Active	15.5	>= 4	–	–	–
